According to article PMC10745882, “Investigation of Drug-Interaction Potential for Arthritis Dietary Supplements: Chondroitin Sulfate, Glucosamine, and Methylsulfonylmethane” (Molecules, 2023):
Where two headings read alike, the source gives them in different places.

Experiments:
[1] = tested on: CYPs; settings: drugs used for OA; ref as in Refs of Table 4, 17-36; cited from earlier work
[2] = interaction case, co-administration of CS and GCS with warfarin; cited from earlier work
[3] = target: T1, CYP3A4(M) (Homo sapiens, UniProt P08684); assay: CYP inhibition assay in human liver microsomes (LC-MS/MS cocktail), midazolam to 1-OH-midazolam; assay type: in vitro ADME
T1 construct: Pooled human liver microsomes were purchased from BD Gentest; tissue BD Gentest; host or cells: pooled human liver microsomes
Protocol: For the experimental method, the reference method was used. […] The reaction mixture, excluding NGS, underwent pre-incubation at 37 °C for 5 min, followed by further incubation with NGS for 30 min in a water bath. […] Post incubation, the reaction was halted by adding 50 µL ice-cold 1% formic acid acetonitrile. After centrifugation at 13,200 rpm for 5 min, the supernatant was collected from the sample and subjected to analysis via an LC-MS/MS system. All experiments were performed in triplicate.
For the experimental method, the reference method was used. […] The HPLC mobile phases comprised (A) 0.1% formic acid and (B) 0.1% formic acid in 90% acetonitrile. […] The total run time was 11.0 min, and the injection volume was 5 µL. Mass detection was conducted in the positive ion mode using multiple reaction monitoring (MRM). Specific MRM transitions for each analyte are detailed in Table S4.

[4] = target: T2, CYP2D6 (Homo sapiens, UniProt P10635); parameters: method as in PMID 34821124, PMID 29488228; settings: previous studies; cited from earlier work
T2 construct: Pooled human liver microsomes were purchased from BD Gentest; tissue BD Gentest; host or cells: pooled human liver microsomes

[5] = parameters: method as in doi:10.4172/2155-9600.1000748, PMID 16168682, PMID 19912983; settings: cited from earlier work
[6] = parameters: method as in PMID 16942821, PMID 37489348, PMID 31331587; settings: typical doses as monotherapy; cited from earlier work
[7] = tested on: seven CYP isozymes (CYP1A2, CYP2A6, CYP2B6, CYP2C9, CYP2C19, CYP2D6, CYP3A4); assay: CYP inhibition assay in human liver microsomes, statements on all tested isozymes; assay type: in vitro ADME
Protocol: (§1) For the experimental method, the reference method was used. Briefly, incubation mixtures were composed of 0.5 mg/mL human liver microsomes; varying concentrations of CS in DW (0.1, 0.3, 1, 3, 10, 30, 100, and 200 µM) or MSM in DW (0.1, 0.3, 1, 3, 10, 30, 100, 300, and 1000 µM) or GCS in DMSO (0.1, 0.3, 1, 3, 10, 30, 100, 300, and 1000 µM); a substrate mixture in DMSO (40 µM phenacetin for CYP1A2; 2.5 µM coumarin for CYP2A6; 80 µM bupropion for CYP2B6; 10 µM diclofenac for CYP2C9; 80 µM [±]-mephenytoin for CYP2C19; 5 µM dextromethorphan for CYP2D6; 2.5 µM midazolam and 30 µM testosterone for CYP3A4); and an NADPH generating system (NGS; 0.1 M glucose-6-phosphate, 10 mg/mL β-NADP^+, and 1 U/mL glucose-6-phosphate dehydrogenase) in a total volume of 200 µL potassium phosphate buffer (0.1 M, pH 7.4). The reaction mixture, excluding NGS, underwent pre-incubation at 37 °C for 5 min, followed by further incubation with NGS for 30 min in a water bath. Well-established selective CYP inhibitors were employed as positive controls (40 µM ketoconazole for CYP3A4, 50 µM furafyllin for CYP1A2, 10 µM quinidine for CYP2D6, 125 µM ticlopidine for CYP2C19 and CYP2B6, 10 µM 8-methoxsalen for CYP2A6, and 10 µM sulfaphenazole for CYP2C9). Post incubation, the reaction was halted by adding 50 µL ice-cold 1% formic acid acetonitrile. After centrifugation at 13,200 rpm for 5 min, the supernatant was collected from the sample and subjected to analysis via an LC-MS/MS system. All experiments were performed in triplicate.
For the experimental method, the reference method was used. The LC-MS/MS system utilized in this study consisted of an Agilent 1260 binary pump HPLC system coupled with the Agilent 6460 Triple Quadrupole mass spectrometer (Agilent Technologies, Santa Clara, CA, USA), featuring an electrospray ionization source. Chromatographic separation was achieved using a Fortis C8 column (2.1 × 100 mm, 5.0 µm; Fortis Technologies Ltd., Neston, UK). The HPLC mobile phases comprised (A) 0.1% formic acid and (B) 0.1% formic acid in 90% acetonitrile. […]

[8] = tested on: CYP2C9; parameters: method as in PMID 34821124, PMID 29488228; settings: previous studies; cited from earlier work
[9] = target: T3, CYP3A4(T) (Homo sapiens, UniProt P08684); assay: CYP inhibition assay in human liver microsomes (LC-MS/MS cocktail), testosterone to 6-β-OH-Testosterone; assay type: in vitro ADME
T3 construct: Pooled human liver microsomes were purchased from BD Gentest; tissue BD Gentest; host or cells: pooled human liver microsomes
Protocol: as §1
For the experimental method, the reference method was used. The LC-MS/MS system utilized in this study consisted of an Agilent 1260 binary pump HPLC system coupled with the Agilent 6460 Triple Quadrupole mass spectrometer (Agilent Technologies, Santa Clara, CA, USA), featuring an electrospray ionization source. Chromatographic separation was achieved using a Fortis C8 column (2.1 × 100 mm, 5.0 µm; Fortis Technologies Ltd., Neston, UK). The HPLC mobile phases comprised (A) 0.1% formic acid and (B) 0.1% formic acid in 90% acetonitrile. A gradient elution method was employed with an initial solvent B concentration of 15% and a flow rate of 0.25 mL/min. […] The total run time was 11.0 min, and the injection volume was 5 µL. Mass detection was conducted in the positive ion mode using multiple reaction monitoring (MRM). Specific MRM transitions for each analyte are detailed in Table S4.

[10] = tested on: CYPs; parameters: method as in PMID 33096940; settings: in vivo mice, after the administration of MSM; cited from earlier work

T3 sequence (P08684 whole entry): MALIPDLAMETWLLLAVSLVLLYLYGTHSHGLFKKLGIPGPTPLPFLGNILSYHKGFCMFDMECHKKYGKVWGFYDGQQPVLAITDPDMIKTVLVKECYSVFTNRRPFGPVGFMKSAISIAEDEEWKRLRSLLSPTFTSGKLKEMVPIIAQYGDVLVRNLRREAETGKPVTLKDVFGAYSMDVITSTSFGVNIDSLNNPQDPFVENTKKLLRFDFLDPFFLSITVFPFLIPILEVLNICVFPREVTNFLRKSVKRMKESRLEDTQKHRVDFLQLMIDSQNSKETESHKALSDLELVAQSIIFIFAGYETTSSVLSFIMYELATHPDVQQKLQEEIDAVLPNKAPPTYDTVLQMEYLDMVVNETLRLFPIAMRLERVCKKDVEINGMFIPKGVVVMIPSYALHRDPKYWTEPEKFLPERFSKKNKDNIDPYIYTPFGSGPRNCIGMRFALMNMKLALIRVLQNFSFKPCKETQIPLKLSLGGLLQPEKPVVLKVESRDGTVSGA
T1 sequence (P08684 whole entry): as above
T2 sequence (P10635 whole entry): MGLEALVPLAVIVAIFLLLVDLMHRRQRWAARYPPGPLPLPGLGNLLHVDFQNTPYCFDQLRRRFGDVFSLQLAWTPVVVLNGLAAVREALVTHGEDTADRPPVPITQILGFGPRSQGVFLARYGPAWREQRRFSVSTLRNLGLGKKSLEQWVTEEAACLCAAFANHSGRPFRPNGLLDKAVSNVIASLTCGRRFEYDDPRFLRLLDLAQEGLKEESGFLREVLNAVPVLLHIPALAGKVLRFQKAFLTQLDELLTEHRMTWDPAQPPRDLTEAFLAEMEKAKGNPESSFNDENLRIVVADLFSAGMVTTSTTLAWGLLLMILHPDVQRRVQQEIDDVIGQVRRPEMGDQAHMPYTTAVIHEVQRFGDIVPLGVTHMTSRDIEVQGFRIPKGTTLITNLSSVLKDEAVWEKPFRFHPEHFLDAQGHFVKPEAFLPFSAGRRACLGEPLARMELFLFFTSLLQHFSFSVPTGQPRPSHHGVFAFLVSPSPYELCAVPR

Q: With `COc1cccc(C2(O)CCCCC2CN(C)C)c1` (centres unmarked) [Tramadol] as the compound, how does the “Metabolism-Associated CYPs” value [1] read?
A: Its value is “CYP2D6 (major), CYP3A4, CYP2B6”.

Q: For `O=C(O)Cc1ccccc1Nc1c(Cl)cccc1Cl` [Diclofenac], which “Metabolism-Associated CYPs” value [1] is on record?
A: The value was “CYP2C8, CYP2C9 (major), CYP2C18, CYP2C19, CYP2B6, CYP3A4”.

Q: For Chondroitin sulfate [CS], which “INR on co-administration with warfarin” value [2] is on record?
A: Its value is “elevated INR”.

Q: And the “Remaining Activities (% of Control, n = 3)” value ([3]; test substance 0.1 μM)?
A: The value was 97.6 ± 3.8 % of Control.

Q: What about the “Remaining Activities (% of Control, n = 3)” value ([3]; test substance 0.3 μM) of the same compound?
A: The value was 99.1 ± 3.1 % of Control.

Q: And the “Remaining Activities (% of Control, n = 3)” value ([3]; test substance 1 μM)?
A: Its value is 91.2 ± 10.6 % of Control.

Q: What about the “Remaining Activities (% of Control, n = 3)” value ([3]; test substance 3 μM) of the same compound?
A: The value was 87.9 ± 27.9 % of Control.

Q: And the “Remaining Activities (% of Control, n = 3)” value ([3]; test substance 10 μM)?
A: Its value is 101.4 ± 4.9 % of Control.

Q: And the “Remaining Activities (% of Control, n = 3)” value ([3]; test substance 30 μM)?
A: Its value is 106.6 ± 5 % of Control.

Q: And the “Remaining Activities (% of Control, n = 3)” value ([3]; test substance 100 μM)?
A: Its value is 113.6 ± 8.4 % of Control.

Q: What about the “Remaining Activities (% of Control, n = 3)” value ([3]; test substance 200 μM) of the same compound?
A: The value was 114.6 ± 2.8 % of Control.

Q: And the “inhibitory effects on CYP2D6” value [4]?
A: Its value is “no inhibitory effects”.

Q: What about the maximum plasma concentrations ([5]; common daily dose 1200 mg/day) of the same compound?
A: The maximum plasma concentrations was “approximately 70 µM”.

Q: What about the “adverse effects in clinical trials” value [6] of the same compound?
A: Its value is “do not exhibit significant adverse effects”.

Q: What about the “inhibitory effects on CYP1A2, CYP2A6, CYP2B6, CYP2C9, CYP2C19, CYP2D6, and CYP3A4” value [7] of the same compound?
A: The value was “no inhibitory effects”.

Q: And the “inhibitory effects on CYP2C9” value [8]?
A: The value was “no inhibitory effects”.

Q: With `CCOC(=O)C1(c2ccccc2)CCN(C)CC1` [Pethidine] as the compound, how does the “Metabolism-Associated CYPs” value [1] read?
A: The value was “CYP2B6 (major), CYP3A4 (major), CYP2C19”.

Q: Which “Remaining Activities (% of Control, n = 3)” value ([3]; test substance 0.3 μM) does the source give for `CS(C)(=O)=O` [MSM, methylsulfonylmethane] here?
A: The value was 93.2 ± 13.2 % of Control.

Q: What about the “Remaining Activities (% of Control, n = 3)” value ([3]; test substance 1 μM) of the same compound?
A: The value was 97.8 ± 4.3 % of Control.

Q: What about the “Remaining Activities (% of Control, n = 3)” value ([3]; test substance 3 μM) of the same compound?
A: The value was 96.2 ± 4.3 % of Control.

Q: And the “Remaining Activities (% of Control, n = 3)” value ([3]; test substance 10 μM)?
A: Its value is 96.8 ± 4.2 % of Control.

Q: What about the “Remaining Activities (% of Control, n = 3)” value ([3]; test substance 30 μM) of the same compound?
A: The value was 96.9 ± 7.2 % of Control.

Q: What about the “Remaining Activities (% of Control, n = 3)” value ([3]; test substance 100 μM) of the same compound?
A: Its value is 96.7 ± 6.2 % of Control.

Q: What about the “Remaining Activities (% of Control, n = 3)” value ([3]; test substance 300 μM) of the same compound?
A: Its value is 97.9 ± 4.4 % of Control.

Q: And the “Remaining Activities (% of Control, n = 3)” value ([3]; test substance 1000 μM)?
A: The value was 99.7 ± 4.1 % of Control.

Q: What about the maximum plasma concentrations ([5]; common daily dose 2000 mg/day) of the same compound?
A: The maximum plasma concentrations was about 1100 µM.

Q: What about the “Remaining Activities (% of Control, n = 3)” value ([9]; test substance 0.3 μM) of the same compound?
A: The value was 95.3 ± 2.9 % of Control.

Q: What about the “Remaining Activities (% of Control, n = 3)” value ([9]; test substance 1 μM) of the same compound?
A: The value was 98.5 ± 4.2 % of Control.

Q: What about the “Remaining Activities (% of Control, n = 3)” value ([9]; test substance 3 μM) of the same compound?
A: The value was 95.1 ± 3.5 % of Control.

Q: What about the “Remaining Activities (% of Control, n = 3)” value ([9]; test substance 10 μM) of the same compound?
A: The value was 98.0 ± 2.4 % of Control.

Q: What about the “Remaining Activities (% of Control, n = 3)” value ([9]; test substance 30 μM) of the same compound?
A: Its value is 95.3 ± 1.7 % of Control.

Q: What about the “Remaining Activities (% of Control, n = 3)” value ([9]; test substance 100 μM) of the same compound?
A: Its value is 90.8 ± 3.4 % of Control.

Q: What about the “Remaining Activities (% of Control, n = 3)” value ([9]; test substance 300 μM) of the same compound?
A: Its value is 95.9 ± 4.2 % of Control.

Q: What about the “Remaining Activities (% of Control, n = 3)” value ([9]; test substance 1000 μM) of the same compound?
A: Its value is 95.2 ± 0.5 % of Control.

Q: What about the “adverse effects in clinical trials” value [6] of the same compound?
A: Its value is “do not exhibit significant adverse effects”.

Q: What about the “inhibitory effects on CYP1A2, CYP2A6, CYP2B6, CYP2C9, CYP2C19, CYP2D6, and CYP3A4” value [7] of the same compound?
A: The value was “no inhibitory effects”.

Q: What about the “inhibition or induction effects on CYPs (intrahepatic gene expressions)” value [10] of the same compound?
A: Its value is “no significant inhibition or induction effects”.

Q: Which “Metabolism-Associated CYPs” value [1] does the source give for `Cc1ccc(-c2cc(C(F)(F)F)nn2-c2ccc(S(N)(=O)=O)cc2)cc1` [Celecoxib] here?
A: The value was “CYP2C9 (major), CYP3A4”.

Q: For `CC(C)Cc1ccc(C(C)C(=O)O)cc1` (centres unmarked) [Ibuprofen], which “Metabolism-Associated CYPs” value [1] is on record?
A: The value was “CYP2C8 (major) CYP2C9 (major), CYP2C19, CYP3A4”.

Q: With `Cc1cnc(NC(=O)C2=C(O)c3ccccc3S(=O)(=O)N2C)s1` [Meloxicam] as the compound, how does the “Metabolism-Associated CYPs” value [1] read?
A: Its value is “CYP2C9 (major), CYP3A4”.

Q: Which “Metabolism-Associated CYPs” value [1] does the source give for `CC(=O)Nc1ccc(O)cc1` [Acetaminophen] here?
A: The value was “CYP3A4 (major), CYP2El, CYP1A2, CYP2D6”.
